Data from patent US9334303B2, “Peptide compound useful for inhibiting amyloid plaque formation” (KIMONELLA VENTURES LTD., priority 2010, dated 2016).
Where a SMILES comes first, the peptide text is derived from it.

Columns and labels:
[1] = biological target: T1, immobilized peptide fragment corresponding to the region 1-16 of the amyloid-β peptide (Homo sapiens, UniProt P05067); assay: SPR binding (BIACORE T100), Example 3, in the absence of zinc; conditions: for Kd: BIACORE T100, no zinc, at least 99% L isomers, read-out: dissociation constant Kd (Example 3)
T1 construct: N-terminal acetyl cap (Ac); C-terminal amide cap (NH2)
Source text: The binding tests described in Example 1 were reproduced, with the same materials, reactives and procedures except for the following significant differences: • the BIACORE apparatus applied was the BIACORE T100 apparatus. This BIACORE T100 apparatus produces more accurate results than the BIACORE 3000 because it includes a degasification system upon injecting the analyte on the sensor and because the method for detecting immobilized ligand/analyte intermolecular complexes on the CM5 chip is more accurate. • the tetrapeptides according to the invention used were purified to at least 99% in L isomers according to HPLC data, the D isomers were prevented from forming and/or removed during the synthesis. In Example 1, the tetrapeptides only included 98% of L isomers. • the concentrations of the tetrapeptides according to the invention applied were 50; 100; 200; 500; 1,000; 1,500 and 2,000 μM. • these experiments were conducted in the absence of zinc. • the surface of the CM5 chips provided a surface which gave a variation of response units (RU) of about 1,023 arbitrary units, with a control liquid sample.
the dissociation constant Kd being given by the formula Kd=koff/kon.

Aβ peptide (1-40) = biological target: T2, Aβ peptide (1-40) (Homo sapiens, UniProt P05067); assay: Aβ aggregation on SYNTHALOID SCREENING PLATE kit (fluorescence); type: biochemical; conditions: for IC50: 100 nM marked Aβ (1-40), 3 hours at room temperature, buffer with physiological Zn(II), read-out: inhibitory concentration IC50 of aggregation of the Aβ peptide; for effect of prolonged incubation on amyloid aggregates: incubation for at least 1 hour, 20, 40, 80, 100 and 150 μM
T2 construct: The complete β peptide 1-40 was used, marked by a fluorescent marker; purchased QUALITY CONTROLLED BIOCHEMICALS Inc. USA
Procedure: They were left to incubate for 3 hours at room temperature in the wells.
In certain wells, tetrapeptides AC-HAEE-NH2 and Ac-RADD-NH2 according to the invention, were introduced at different concentrations depending on the wells (0, 5, 10, 20, 40, 80, 100 and 150 μM), for checking the effect of tetrapeptides according to the invention on the aggregation phenomenon of Aβ peptides.
To do this, at the end of the incubation, the unbound proteins in the wells were removed with three washings, by using the buffer solution above. The amount of bound proteins in the form of aggregates, bound to the well, was measured by measuring the fluorescence intensity.

[2] = biological target: T3, immobilized peptide fragment corresponding to the 1-16 region of the amyloid-β peptide (Homo sapiens, UniProt P05067); assay: SPR binding (BIACORE 3000), Examples 1 and 2
T3 construct: N-terminal acetyl cap (Ac); C-terminal amide cap (NH2)
T3 sequence (P05067 with tags, fused parts or gaps limits assumed): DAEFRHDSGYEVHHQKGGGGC
Source text: With this analysis, it is possible to calculate the dissociation constant Kd of the interaction of the peptide with the immobilized ligand, it being understood that the value of Kd is all the more smaller since the interaction with the ligand and therefore the stability of the formed interaction complex are high.
More specifically, in an SPR spectroscopy system, for example applying a biosensor from BIACORE, after immobilization of the ligand at the surface of a sensor of the chip type, in this case here the amyloid-β fragment, the analyte reagent is injected on said surface at a constant flow rate through systems of microfluidic channels. Polarized light emitted by a light source is reflected on the gold-covered surface of the chip, and then detected by a diode reader. According to the binding of the ligand and of the analyte molecule, the intensity of the reflected light is different. The variation in the response of the spectrometer (RU=Response unit) allows calculation of the dissociation constant of the interaction.
The chips of the biosensor came from GE Healthcare (USA). The SPR spectroscopy experiments were conducted with the BIACORE 3000 apparatus. The reagents for immobilizing the amyloid-β peptide fragment (EDC, NHS, PDEA and cysteine) were bought from GE Healthcare (USA). The buffer used for immobilizing the peptide ligand by formation of thiol bonds was 10 mM sodium acetate at pH 4.5. The regeneration buffer was an HBS buffer containing a medium with 10 mM HEPES and 3 mM EDTA, 0.005% of surfactant P20 and 150 mM NaCl at pH 7.4. […] All the buffers were filtered before use.
This peptide with 21 amino acids contains the 16 amino acids of the N-terminal end of the binding domain of the amyloid-β, i.e. [sequence] (SEQ. ID. NO.25), followed by 4 glycine amino acids and a cysteine C-Terminal end. Cysteine is necessary for immobilizing the ligand on the surface of the chip through a thiol bond according to the procedure of the supplier. 4 glycine amino acids therefore form a binding tetrapeptide (“linker”) between the chip and the ligand. Further, the thereby immobilized ligand has enough flexibility relatively to the surface, so as to validly mimic the interaction conditions between the tetrapeptide reagent and the ligand. This ligand was bound onto a CM5 chip of the biosensor, by following the standard procedure through a thiol bond under conditions described in the handbook of the sensor provided by the supplier GE Healthcare (USA).
The flow rate applied in all the steps was 5 μl/min. The carboxymethyl dextran matrix was activated by injecting a 1:1 mixture of 1-ethyl-3(3-dimethylaminopropyl)-carbodiimide (EDC) and of N-hydroxysuccinimide (NHS), i.e. 30 μl of EDC at 400 mM and NHS at 100 mM, followed by an injection of 80 mM PDEA (2-(2-pyridinyldithio)-ethane-amine) in solution in 0.1 M sodium borate at a pH of 8.5. The peptide ligand in solution in a sodium acetate buffer in an amount of 0.05 mg/ml was then injected. […] The control liquid was reacted with the surface of the chip according to the same procedure.
The surface of the chip was exposed for 330 seconds to the reagent buffer solution in order to track its binding. The surface of the chip was then regenerated by injecting a regeneration buffer (20 μL). The data of the control lane were subtracted from raw data of the lane corresponding to the immobilized reagent peptides.

T2 sequence (P05067 672-711 limits assumed): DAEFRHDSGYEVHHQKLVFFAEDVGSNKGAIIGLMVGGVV

Row | SMILES | koff [1] | kon [1] | Kd [1] | IC50 (Aβ peptide (1-40)) | effect of prolonged incubation on amyloid aggregates (Aβ peptide (1-40)) | Kd ([2]; BIACORE 3000, peptides with Ra=Ac, Rb=NH2, 98% L isomers, read-out: dissociation constant Kd) | interactions of the ligand with the reagent at high concentrations of Zn(II) ions ([2]; Zn(II) 10 mM) | dissociation constant in the presence of physiological concentrations of Zn(II) ions ([2]; Zn(II) 100-400 μM) | interactions with the 1-16 domain of Aβ at higher concentrations of Zn(II) ions ([2]; Zn(II) of the order of 1 millimolar (mM)) | binding to the 1-16 domain of the amyloid-β in the presence or absence of Zn(II) ions ([2]; physiological Zn(II), micromolar levels (less than 500 μM))
1 | CC(=O)N[C@@H](Cc1c[nH]cn1)C(=O)N[C@@H](C)C(=O)N[C@@H](CC(=O)O)C(=O)N[C@@H](CC(=O)O)C(N)=O [SEQ. ID. NO. 1, HADD] (Ac-HADD-NH2) | 0.0104 ± 2e-05 s⁻¹ | 3.2 ± 0.08 M⁻¹ s⁻¹ |  |  |  |  |  |  |  | 
2 | CC(=O)N[C@@H](CC(=O)O)C(=O)N[C@@H](CC(=O)O)C(=O)N[C@@H](C)C(=O)N[C@@H](CCCCN)C(N)=O [SEQ. ID. NO. 4, DDAK] (Ac-DDAK-NH2) | 0.0062 ± 0.0001 s⁻¹ | 4.57 ± 0.09 M⁻¹ s⁻¹ | 1000 to 10000 µM |  |  |  |  |  |  | 
3 | CC(=O)N[C@@H](CCCNC(=N)N)C(=O)N[C@@H](C)C(=O)N[C@@H](CC(=O)O)C(=O)N[C@@H](CC(=O)O)C(N)=O [SEQ. ID. NO. 5, Ac-RADD-NH2] (Ac-RADD-NH2) | 0.00024 ± 4e-05 s⁻¹ | 18.5 M⁻¹ s⁻¹ |  | 20 µM | irreversible disaggregation |  |  |  |  | 
4 | CC(=O)N[C@@H](CCCCN)C(=O)N[C@@H](C)C(=O)N[C@@H](CCC(=O)O)C(=O)N[C@@H](CC(=O)O)C(N)=O [SEQ. ID. NO. 9, KAED] (Ac-KAED-NH2) | 0.019 ± 0.001 s⁻¹ | 5.7 ± 0.9 M⁻¹ s⁻¹ | 1000 to 10000 µM |  |  |  |  |  |  | 
5 | CC(=O)N[C@@H](CC(=O)O)C(=O)N[C@@H](CCC(=O)O)C(=O)N[C@@H](C)C(=O)N[C@@H](CCCNC(=N)N)C(N)=O [SEQ. ID. NO. 12, DEAR] (Ac-DEAR-NH2) | 0.00709 ± 9e-05 s⁻¹ | 3.58 ± 0.08 M⁻¹ s⁻¹ | 1000 to 10000 µM |  |  |  |  |  |  | 
6 | CC(=O)N[C@@H](CCCCN)C(=O)N[C@@H](C)C(=O)N[C@@H](CC(=O)O)C(=O)N[C@@H](CCC(=O)O)C(N)=O [SEQ. ID. NO. 15, KADE] (Ac-KADE-NH2) | 0.0096 ± 0.0002 s⁻¹ | 2.2 ± 0.1 M⁻¹ s⁻¹ | 1000 to 10000 µM |  |  |  |  |  |  | 
7 | CC(=O)N[C@@H](Cc1c[nH]cn1)C(=O)N[C@@H](C)C(=O)N[C@@H](CCC(=O)O)C(=O)N[C@@H](CCC(=O)O)C(N)=O [SEQ. ID. NO. 19, Ac-HAEE-NH2] (Ac-HAEE-NH2) | 3.5e-05 ± 8e-06 s⁻¹ | 0.37 ± 0.05 M⁻¹ s⁻¹ |  | 20 µM | irreversible disaggregation | 0.022 µM | suppressed the interactions | practically unchanged | suppress the interactions | practically not altered
8 | CC(=O)N[C@@H](CCCNC(=N)N)C(=O)N[C@@H](C)C(=O)N[C@@H](CCC(=O)O)C(=O)N[C@@H](CCC(=O)O)C(N)=O [SEQ. ID. NO. 23, RAEE] (Ac-RAEE-NH2) | 0.0112 ± 8e-05 s⁻¹ | 1.5 ± 0.1 M⁻¹ s⁻¹ | 1000 to 10000 µM |  |  |  |  |  |  | 
